Source: patent US8546376B2, “Pharmaceutical compounds” (Almac Discovery Limited, priority 2009, dated 2013)
Structures can show the parent of a compound that is named as a salt.

Key:
Assay type in all cases: biochemical
AKT1 = biological target: T1, AKT1 (Homo sapiens, UniProt P31749); test: AKT Kinase Assay (IMAP fluorescent polarisation) vs AKT1; conditions: activated AKT1, FAM Crosstide substrate
T1 construct: purchased SignalChem
Experimental: (§1) Testing of the compounds was performed using an AKT Kinase Assay:
(§2) Activated AKT isoforms 1, 2 and 3 were assayed utilising a 5′ FAM Crosstide (Seq. GRPRTSSFAEG-OH). The extent of kinase phosphorylation was determined by fluorescent polarisation using IMAP progressive binding reagent, which introduces binding beads which allow the reagent to specifically bind to phosphate residues via covalent co-ordination complex bonds.
(§3) iMAP binding solution stops Crosstide/kinase interaction and specifically binds phosphorylated substrates. The degree of phosphorylation is determined by fluorescent polarisation (excitation 485 nm; emission 528 nm) or the reduction in speed of rotation of the excited substrate.
(§4) The following materials were used in the assay: • a) Activated AKT isoforms (SignalChem.) dissolved in Complete Reaction buffer at a pre-determined concentration selected so that the assay was carried out in the linear range. • b) AKT substrate peptide: FAM Crosstide (R7110) Molecular Devices, diluted in complete reaction buffer. • c) iMAP Progressive Screening Express Kit (R8127) Molecular Devices • d) Complete Reaction Buffer containing 0.1% BSA, 10 mM Tris-HCl, 10 mM MgCl2, 0.05% NaN3 and 0.01% phosphate free BSA, 1 mM DTT • e) Progressive Binding Solution containing 75% Buffer A, 25% Buffer B and low volume Binding Reagent which contains the binding entity for the assay • f) ATP diluted in complete reaction buffer • g) Black polystyrene 384 well assay plates (Nunc). • h) Biotek Synergy 4 Hybrid Plate reader.
(§5) 5 μl of test compound was dissolved in DMSO (Sigma Aldrich) and serially diluted in complete reaction buffer to give a fourteen point half log dose response and plated into 384 well black plates. The compound was incubated at room temperature with activated AKT isoform (5 μl) at the pre-determined concentration, for 45 minutes.
(§6) 2.5 μl of ATP solution mixed with 2.5 μl of AKT substrate peptide (FAM Crosstide (R7110) Molecular Devices) were dispensed into each well and the plate centrifuged at 1000 rpm for 20 seconds to ensure homogenous mixing of reagents. The reaction mix was incubated in the dark for one hour at room temperature.
(§7) The kinase reaction was stopped by the addition of Progressive Binding Solution and the mixture allowed to equilibrate for one hour in the dark, at room temperature.
(§8) The fluorescent polarisation generated in each well was determined using a […] Synergy 4 Hybrid plate reader. In brief, each reaction solution was excited at 485 nm with the emission measured at 528 nm in both the parallel and perpendicular pathway.
(§9) The polarisation value generated in each well was calculated by Gen5 software (Biotek) and the % inhibition of kinase activity compared to vehicle control was calculated via GraphPad Prism. IC50 values for each compound were calculated by non-linear regression analysis using Prism software.
(§10) All plates were internally controlled by two methods. Firstly, by calculating the signal:noise ratio; based on kinase polarisation without inhibitor and polarisation generated by complete reaction buffer in the absence of activated kinase. Secondly by determining IC50 values generated by known inhibitors of the AKT isoforms.

AKT2 = biological target: T2, AKT2 (Homo sapiens, UniProt P31751); test: AKT Kinase Assay (IMAP fluorescent polarisation) vs AKT2; conditions: activated AKT2, FAM Crosstide substrate
T2 construct: purchased SignalChem
Experimental: as §1, §2, §3, §4, §5, §6, §7, §8, §9, §10

AKT3 = biological target: T3, AKT3 (Homo sapiens, UniProt Q9Y243); test: AKT Kinase Assay (IMAP fluorescent polarisation) vs AKT3; conditions: activated AKT3, FAM Crosstide substrate
T3 construct: purchased SignalChem
Experimental: as §1, §2, §3, §4, §5, §6, §7, §8, §9, §10

T2 sequence (P31751 whole entry): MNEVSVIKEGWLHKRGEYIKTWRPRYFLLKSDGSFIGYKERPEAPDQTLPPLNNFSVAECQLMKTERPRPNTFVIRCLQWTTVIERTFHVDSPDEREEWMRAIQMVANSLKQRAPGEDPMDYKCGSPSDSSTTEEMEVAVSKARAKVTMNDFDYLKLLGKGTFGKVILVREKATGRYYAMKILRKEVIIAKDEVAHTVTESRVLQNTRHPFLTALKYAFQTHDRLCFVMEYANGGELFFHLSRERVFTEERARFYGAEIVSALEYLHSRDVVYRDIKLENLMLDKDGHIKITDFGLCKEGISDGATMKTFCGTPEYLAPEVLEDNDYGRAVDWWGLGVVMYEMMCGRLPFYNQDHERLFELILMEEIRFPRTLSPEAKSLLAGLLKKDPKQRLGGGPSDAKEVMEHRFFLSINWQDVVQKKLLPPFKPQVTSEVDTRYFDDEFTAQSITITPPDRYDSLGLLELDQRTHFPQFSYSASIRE
T1 sequence (P31749 whole entry): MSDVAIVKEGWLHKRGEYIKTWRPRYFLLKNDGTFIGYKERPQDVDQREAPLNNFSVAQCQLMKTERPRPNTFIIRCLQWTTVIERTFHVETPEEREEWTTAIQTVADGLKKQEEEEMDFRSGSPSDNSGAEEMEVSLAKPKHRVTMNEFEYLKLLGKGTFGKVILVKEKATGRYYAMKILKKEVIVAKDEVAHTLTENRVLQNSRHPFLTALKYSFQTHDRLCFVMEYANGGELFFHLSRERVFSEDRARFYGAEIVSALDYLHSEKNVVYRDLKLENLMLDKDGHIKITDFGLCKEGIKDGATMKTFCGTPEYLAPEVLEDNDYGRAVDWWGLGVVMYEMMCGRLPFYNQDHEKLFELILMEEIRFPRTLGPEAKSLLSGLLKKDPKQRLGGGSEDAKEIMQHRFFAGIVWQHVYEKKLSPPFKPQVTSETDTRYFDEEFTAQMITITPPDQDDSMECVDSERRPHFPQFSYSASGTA
T3 sequence (Q9Y243 whole entry): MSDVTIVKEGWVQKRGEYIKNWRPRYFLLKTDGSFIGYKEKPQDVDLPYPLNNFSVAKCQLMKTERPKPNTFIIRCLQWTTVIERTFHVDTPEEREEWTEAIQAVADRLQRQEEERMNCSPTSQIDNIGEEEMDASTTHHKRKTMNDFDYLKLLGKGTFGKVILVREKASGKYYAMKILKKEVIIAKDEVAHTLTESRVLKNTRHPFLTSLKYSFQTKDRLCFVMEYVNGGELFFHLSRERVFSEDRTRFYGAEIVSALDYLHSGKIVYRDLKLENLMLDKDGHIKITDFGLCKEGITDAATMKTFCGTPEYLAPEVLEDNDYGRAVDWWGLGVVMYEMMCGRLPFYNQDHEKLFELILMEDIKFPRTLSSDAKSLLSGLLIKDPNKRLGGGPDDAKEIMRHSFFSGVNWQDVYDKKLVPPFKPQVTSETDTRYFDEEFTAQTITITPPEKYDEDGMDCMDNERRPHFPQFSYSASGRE

SMILES | IC50 (AKT1) [nM] | IC50 (AKT2) [nM] | IC50 (AKT3) [nM]
Nc1ccc2c(=O)c(-c3ccc(C4(N)CCC4)cc3)c(-c3ccccc3)oc2c1 [Example 47, 7-Amino-3-[4-(1-amino-cyclobutyl)-phenyl]-2-phenyl-1-benzopyran-4-one.TFA] | 1000 to 10000 | 1000 to 10000 | > 10000
NC1(c2ccc(C3=C(c4ccccc4)c4ccccc4C3=O)cc2)CCC1 [Example 48, 2-(4-(1-aminocyclobutyl)phenyl)-3-phenyl-1H-inden-1-one hydrochloride] | 1000 to 10000 | 1000 to 10000 | 1000 to 10000
Nc1cc2oc(-c3ccccc3)c(-c3ccc(C4(N)CCC4)cc3)c(=O)c2cc1Br [Example 49, 7-Amino-3-[4-(1-amino-cyclobutyl)-phenyl]-6-bromo-2-phenyl-chromen-4-one. TFA] | ≤ 1000 | > 10000 | > 10000
COc1ccc2c(=O)c(-c3ccc(C4(N)CCC4)cc3)c(-c3ccccc3)oc2c1C(N)=O [Example 50, 3-[4-(1-Amino-cyclobutyl)-phenyl]-7-methoxy-4-oxo-2-phenyl-4H-chromene-8-carboxylic acid amide hydrochloride] | ≤ 1000 | 1000 to 10000 | 1000 to 10000
NC1(c2ccc(-c3c(-c4ccccc4)oc4c(Br)cccc4c3=O)cc2)CCC1 [Example 51, 3-[4-(1-Amino-cyclobutyl)-phenyl]-8-bromo-2-phenyl-chromen-4-one] | ≤ 1000 | ≤ 1000 | ≤ 1000
NC1(c2ccc(-c3c(-c4ccccc4)oc4c(-c5cn[nH]c5)cccc4c3=O)cc2)CCC1 [Example 52, 3-[4-(1-Amino-cyclobutyl)-phenyl]-2-phenyl-8-(1H-pyrazol-4-yl)-chromen-4-one hydrochloride] | ≤ 1000 | ≤ 1000 | ≤ 1000
NC1(c2ccc(-c3c(-c4ccccc4)oc4c(-c5cc[nH]n5)cccc4c3=O)cc2)CCC1 [Example 53, 3-[4-(1-Amino-cyclobutyl)-phenyl]-2-phenyl-8-(1H-pyrazol-3-14)-chromen-4-one hydrochloride] | ≤ 1000 | ≤ 1000 | 1000 to 10000
NC1(c2ccc(-c3c(-c4ccccc4)oc4c(C5CC5)cccc4c3=O)cc2)CCC1 [Example 54, 3-[4-(1-Amino-cyclobutyl)-phenyl]-8-cyclopropyl-2-phenyl-chromen-4-one hydrochloride] | ≤ 1000 | ≤ 1000 | 1000 to 10000
Cn1cc(-c2cccc3c(=O)c(-c4ccc(C5(N)CCC5)cc4)c(-c4ccccc4)oc23)cn1 [Example 55, 3-[4-(1-Amino-cyclobutyl)-phenyl]-8-(1-methyl-1H-pyrazol-4-yl)-2-phenyl-chromen-4-one hydrochloride] | ≤ 1000 | ≤ 1000 | 1000 to 10000
NC1(c2ccc(-c3c(-c4ccccc4)oc4c(-c5cccnc5)cccc4c3=O)cc2)CCC1 [Example 56, 3-[4-(1-Amino-cyclobutyl)-phenyl]-2-phenyl-8-pyridin-3-yl-chromen-4-one] | ≤ 1000 | ≤ 1000 | 1000 to 10000
NC1(c2ccc(-c3c(-c4ccccc4)oc4c(ccc5cn[nH]c54)c3=O)cc2)CCC1 [Example 57, 7-[4-(1-Amino-cyclobutyl)-phenyl]-8-phenyl-1H-9-oxa-1,2-diaza-cyclopenta[a]naphthalen-6-one] | ≤ 1000 | ≤ 1000 | 1000 to 10000
Cn1ncc2ccc3c(=O)c(-c4ccc(C5(N)CCC5)cc4)c(-c4ccccc4)oc3c21 [Example 58, 7-[4-(1-Amino-cyclobutyl)-phenyl]-1-methyl-8-phenyl-1H-9-oxa-1,2-diaza-cyclopenta[a]naphthalen-6-one] | ≤ 1000 | ≤ 1000 | 1000 to 10000
Cn1cc2ccc3c(=O)c(-c4ccc(C5(N)CCC5)cc4)c(-c4ccccc4)oc3c2n1 [Example 59, 7-[4-(1-Amino-cyclobutyl)-phenyl]-2-methyl-8-phenyl-2H-9-oxa-1,2-diaza-cyclopenta[a]naphthalen-6-one] | ≤ 1000 | ≤ 1000 | 1000 to 10000
Cn1ncc2c3oc(-c4ccccc4)c(-c4ccc(C5(N)CCC5)cc4)c(=O)c3ccc21 [Example 60, 3-[4-(1-Amino-cyclobutyl)-phenyl]-7-methyl-2-phenyl-7H-pyrano[2,3-e]indazol-4-one] | ≤ 1000 | ≤ 1000 | 1000 to 10000
Cn1cc2c(ccc3c(=O)c(-c4ccc(C5(N)CCC5)cc4)c(-c4ccccc4)oc32)n1 [Example 61, 3-[4-(1-Amino-cyclobutyl)-phenyl]-8-methyl-2-phenyl-8H-pyrano[2,3-e]indazol-4-one] | ≤ 1000 | ≤ 1000 | 1000 to 10000
Cn1cnc2c3oc(-c4ccccc4)c(-c4ccc(C5(N)CCC5)cc4)c(=O)c3cc(Cl)c21 [Example 62, 7-[4-(1-Amino-cyclobutyl)-phenyl]-4-chloro-3-methyl-8-phenyl-3H-chromeno[7,8-d]imidazol-6-one hydrochloride] | ≤ 1000 | ≤ 1000 | ≤ 1000
NC1(c2ccc(-c3c(-c4ccccc4)oc4c(ccn5c(=O)[nH]nc45)c3=O)cc2)CCC1 [Example 63, 7-[4-(1-Amino-cyclobutyl)-phenyl]-8-phenyl-2H-9-oxa-1,2,3a-triaza-cyclopenta[a]naphthalene-3,6-dione hydrochloride] | ≤ 1000 | ≤ 1000 | ≤ 1000
Cn1nc2c3oc(-c4ccccc4)c(-c4ccc(C5(N)CCC5)cc4)c(=O)c3ccn2c1=O [Example 64, 7-[4-(1-Amino-cyclobutyl)-phenyl]-2-methyl-8-phenyl-2H-9-oxa-1,2,3a-triaza-cyclopenta[a]naphthalene-3,6-dione hydrochloride] | ≤ 1000 | ≤ 1000 | ≤ 1000
NC1(c2ccc(-c3c(-c4ccccc4)oc4ccccc4c3=S)cc2)CCC1 [Example 65, 3-[4-(1-Amino-cyclobutyl)-phenyl]-2-phenyl-chromene-4-thione hydrochloride] | 1000 to 10000 | 1000 to 10000 | 1000 to 10000
CON=c1c(-c2ccc(C3(N)CCC3)cc2)c(-c2ccccc2)oc2ccccc12 [Example 66, 3-[4-(1-Amino-cyclobutyl)-phenyl]-2-phenyl-chromen-4-one O-methyl-oxime] | ≤ 1000 | 1000 to 10000 | > 10000
NC1(c2ccc(-c3c(-c4ccccc4)oc4c(Br)cccc4c3=O)cc2)COC1 [Example 67, 3-[4-(3-Amino-oxetan-3-yl)-phenyl]-8-bromo-2-phenyl-chromen-4-one] | ≤ 1000 | > 10000 | > 10000
NC1(c2ccc(-c3c(-c4ccccc4)oc4c(ccn5c(=O)[nH]nc45)c3=O)cc2)COC1 [Example 68, 7-[4-(3-Amino-oxetan-3-yl)-phenyl]-8-phenyl-2H-9-oxa-1,2,3a-triaza-cyclopenta[a]naphthalene-3,6-dione] | ≤ 1000 | 1000 to 10000 | > 10000
NC1(c2ccc(-c3c(-c4ccccc4)oc4c(ccn5c(=O)[nH]nc45)c3=O)cn2)CCC1 [Example 69, 7-[6-(1-Amino-cyclobutyl)-pyridin-3-yl]-8-phenyl-2H-9-oxa-1,2,3a-triaza-cyclopenta[a]naphthalene-3,6-dione] | ≤ 1000 | 1000 to 10000 | > 10000
